Data: ChEMBL document CHEMBL1127230, “New non-peptide angiotensin II receptor antagonists. 2: structure - activity relationship of a series of annelated 2(1H)-pyridinones” (Bioorg Med Chem Lett, 1994)

Tests used:
[1] = target: Angiotensin II receptor (Homo sapiens) (UniProt P30556+P50052); experiment: In vitro functional antagonistic affinity measured against angiotensin II receptor in paired rings of rabbit aorta; type: tissue-based; settings: Oryctolagus cuniculus, target entry is the homologue from another species
[2] = target: T1, Type-1 angiotensin II receptor (Bos taurus, UniProt P25104); experiment: Inhibition of [125I]AII binding to angiotensin II receptor of bovine adrenal cortex; type: tissue-based; settings: read-out: EC50 (the source's name)
T1 sequence (P25104 whole entry): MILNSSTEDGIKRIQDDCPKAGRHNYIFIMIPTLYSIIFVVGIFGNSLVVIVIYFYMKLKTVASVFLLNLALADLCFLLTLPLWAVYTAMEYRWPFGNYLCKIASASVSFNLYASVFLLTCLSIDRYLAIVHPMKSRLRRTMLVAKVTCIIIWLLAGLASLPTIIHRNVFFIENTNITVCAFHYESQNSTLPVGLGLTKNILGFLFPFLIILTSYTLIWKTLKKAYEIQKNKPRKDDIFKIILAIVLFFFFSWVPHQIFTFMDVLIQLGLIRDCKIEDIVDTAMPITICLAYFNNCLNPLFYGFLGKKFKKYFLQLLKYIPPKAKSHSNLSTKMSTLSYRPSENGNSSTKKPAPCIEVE

Rattus norvegicus [3] = experiment: In vivo potency determined as dose given iv to produce reduction in angiotensin II pressor response in normotensive rats; type: functional; settings: read-out: ID50 (the source's name)
Rattus norvegicus [4] = experiment: Tested for in vitro inhibition of specific binding of [125I]AII for bolus injection of 0.3 mg/kg lasting up to 90 min post dose; type: functional; settings: 1.5 h

Row | Structure (SMILES) | pKB [1] | IC50 [2] [nM] | ED50 (Rattus norvegicus [3]) [mg/kg] | inhibition in vivo at 0.3 mg/kg (Rattus norvegicus [4]) [%]
1 | Cc1ccc2c(O)c(-c3ccccc3)c(=O)n(Cc3ccc(-c4ccccc4-c4nn[nH]n4)cc3)c2n1 | 7 |  |  | 
2 | CSc1ccc2c(O)c(-c3ccccc3)c(=O)n(Cc3ccc(-c4ccccc4-c4nn[nH]n4)cc3)c2c1 | 6.6 | 600 |  | 
3 | Cc1ccc2c(O)c(-c3ccccc3)c(=O)n(Cc3ccc(-c4ccccc4-c4nnn[nH]4)cc3)c2n1 |  | 1250 |  | 
4 | O=c1c(Cc2ccccc2)c(O)c2ccccc2n1Cc1ccc(-c2ccccc2-c2nn[nH]n2)cc1 | 7.5 |  |  | 
5 | CCCc1cc2nc(O)nc-2c(O)n1Cc1ccc(-c2ccccc2-c2nn[nH]n2)cc1 | 6.4 |  |  | 
6 | CCc1cc2c(O)c(-c3ccccc3)c(=O)n(Cc3ccc(-c4ccccc4-c4nn[nH]n4)cc3)c2s1 |  | 90 | 5 | 
7 | CCOc1ccc2c(O)cc(=O)n(Cc3ccc(-c4ccccc4-c4nn[nH]n4)cc3)c2c1 | 8.9 |  |  | 
8 | O=c1c(-c2ccccc2)c(O)c2ccc([N+](=O)[O-])cc2n1Cc1ccc(-c2ccccc2-c2nn[nH]n2)cc1 | 7.5 |  |  | 
9 | CCCc1cc2c(ncn2C)c(=O)n1Cc1ccc(-c2ccccc2-c2nn[nH]n2)cc1 | 7.6 |  |  | 
10 | CCc1cc2c(O)cc(=O)n(Cc3ccc(-c4ccccc4-c4nn[nH]n4)cc3)c2s1 | 9.6 |  |  | 
11 | COc1ccc2c(O)cc(=O)n(Cc3ccc(-c4ccccc4C(=O)O)cc3)c2c1 | 6.3 |  |  | 
12 | O=c1c(-c2ccccc2)c(O)c2ccccc2n1Cc1ccc(-c2ccccc2-c2nn[nH]n2)cc1 | 7.2 | 1700 | 1.2 | 
13 | CS(=O)(=O)c1ccc2c(O)c(-c3ccccc3)c(=O)n(Cc3ccc(-c4ccccc4-c4nn[nH]n4)cc3)c2c1 | 5.9 | ~30000 |  | 
14 | COc1ccc2c(O)c(-c3ccccc3)c(=O)n(Cc3ccc(-c4ccccc4-c4nn[nH]n4)cc3)c2c1 | 7.4 |  | 2.5 | 
15 | CCOc1ccc2c(O)c(Cc3ccccc3)c(=O)n(Cc3ccc(-c4ccccc4C(=O)O)cc3)c2c1 | 7.8 |  |  | 
16 | CCOc1ccc2c(O)c(-c3ccccc3)c(=O)n(Cc3ccc(-c4ccccc4-c4nn[nH]n4)cc3)c2c1 | 7.1 |  | 1.3 | 

Row | Structure (SMILES) | pKB [1] | IC50 [2] [nM] | ED50 (Rattus norvegicus [3]) [mg/kg] | inhibition in vivo at 0.3 mg/kg (Rattus norvegicus [4]) [%]
17 | COc1ccc2c(O)c(C(C)=O)c(=O)n(Cc3ccc(-c4ccccc4C(=O)O)cc3)c2c1 | 6.6 |  |  | 
18 | CCc1ccc2c(O)c(-c3ccccc3)c(=O)n(Cc3ccc(-c4ccccc4C(=O)O)cc3)c2c1 | 7.2 |  |  | 
19 | O=c1c(-c2ccccc2)c(O)c2c(n1Cc1ccc(-c3ccccc3-c3nn[nH]n3)cc1)CCC2 | 7.2 |  |  | 
20 | CCCCc1c(O)c2ccc(OC)cc2n(Cc2ccc(-c3ccccc3C(=O)O)cc2)c1=O | 6.6 |  |  | 
21 | COc1ccc2c(O)cc(=O)n(Cc3ccc(-c4ccccc4-c4nn[nH]n4)cc3)c2c1 | 8.3 |  | 1.08 | 
22 | CCCCc1nc(Cl)c(CO)n1Cc1ccc(-c2ccccc2C(=O)O)cc1 | 7.1 |  |  | 
23 | CCCc1cc2ncnc-2c(O)n1Cc1ccc(-c2ccccc2-c2nn[nH]n2)cc1 | 9.1 |  | 0.18 | 
24 | CCOc1ccc2c(O)c(-c3ccccc3)c(=O)n(Cc3ccc(-c4ccccc4C(=O)O)cc3)c2c1 | 7.7 | 1800 |  | 
25 | COc1ccc2c(O)c(-c3ccccc3)c(=O)n(Cc3ccc(-c4ccccc4-c4nnn[nH]4)cc3)c2c1 |  | 2200 |  | 
26 | COc1ccc2c(O)c(-c3ccccc3)c(=O)n(Cc3ccc(-c4ccccc4C(=O)O)cc3)c2c1 | 6.7 | 9500 |  | 
27 | CCCc1cc2ncn(C)c2c(=O)n1Cc1ccc(-c2ccccc2-c2nn[nH]n2)cc1 | 10.2 |  | < 0.3 | > 50
28 | O=c1c(-c2ccccc2)c(O)c2c(n1Cc1ccc(-c3ccccc3-c3nnn[nH]3)cc1)CCC2 |  | 1250 |  | 
29 | CCCCc1nc(Cl)c(CO)n1Cc1ccc(-c2ccccc2-c2nnn[nH]2)cc1 [LOSARTAN] | 8.3 |  | 1.2 | 
30 | CCOc1ccc2c(O)c(-c3ccccc3)c(=O)n(Cc3ccc(-c4ccccc4-c4nnn[nH]4)cc3)c2c1 |  | 500 |  | 
31 | O=c1c(-c2ccccc2)c(O)c2sccc2n1Cc1ccc(-c2ccccc2-c2nn[nH]n2)cc1 | 7.4 | 6000 | 3.2 | 
